From patent US10672502B2, “Methods for determining protein structure using a surface-selective nonlinear optical technique” (Biodesy, Inc., priority 2015, dated 2020) come the findings set out here.

Like-named read-outs stand apart in the source and are kept apart here.

The test has as its system dihydrofolate reductase (DHFR). The following applies: 1 uM TMP.

Protocol: Immediately before applying DOPC/DGS NTA (Ni) lipids, clean microscope slides with Piranha wash for 20 minutes. Rinse 3× with diH2O in a slide staining vessel. Dry slides with compressed Nitrogen. Assemble SHG wells by attaching adhesive gaskets to Piranha-cleaned slides (i.e., 16 wells per slide containing 10-20 μl volume). Use an assembly jig to align gaskets, carefully lay slide into jig and press firmly. Dilute DOPC/DGS NTA (Ni) lipid prep 1:1 with PBS or TBS buffers. 100 mM NaCl is required to reduce hydrostatic charge of the glass slide and enable the supported lipid bilayer (SLB) to form. Pipet 10-20 μL of diluted DOPC/DGS NTA (Ni) lipid into the wells of the slide and incubate for 5 minutes at room temperature. Wash the wells by submersing the slide in buffer bath (PBS or TBS) and agitating with a 200 μL pipettor taking care not to introduce air into the wells at any time. Exchange the entire volume of buffer in the bath with fresh buffer and repeat the washing step 2 more times. Add a 1:1 volume of 100 mM NiCl2 solution to all wells and incubate for 10 minutes at room temperature. Wash the wells by submersing the slide in buffer bath (PBS or TBS) and agitating with a 200 μL pipettor. Exchange the entire volume of buffer in bath with fresh buffer and repeat the washing step 2 more times. […]

For the compound `COc1cc(Cc2cnc(N)nc2N)cc(OC)c1OC` [TMP, trimethoprim], the “decrease in baseline signal (SHG % change, Izzz)” value runs as follows: (cysteine-labeled DHFR mutant tethered to Ni/NTA supported lipid bilayer via His tag at the C-terminus) “approximately 90%”; (cysteine-labeled DHFR mutant tethered to Ni/NTA supported lipid bilayer via His tag at the N-terminus, FIG. 14A) “roughly 70%”.
